Entries after “also recorded” stand apart in the source; their conditions may differ.

The values that follow come from patent US20140308675A1, “MUTAGENICITY TEST METHOD USING MAMMALIAN CELLS” (NISSIN FOODS HOLDINGS CO., LTD., priority 2011, published 2014).

The test system of data set [1] is cells TK6/p53R2×3-Luc2P/Rluc. In words: Mutagenicity test with internal control, cells TK6/p53R2×3-Luc2P/Rluc. The note with it: 0.1-20 μg/mL; 6 hours; FIG. 11. It is filed as cell-based, human. How it is done:
Next, in accordance with the method of Example 8, cells stably expressing Luc2P and Rluc were acquired and named TK6/p53R2×3-Luc2P/Rluc.
Next, the above-mentioned two kinds of cells were brought into contact with 5-aza-2′-deoxycytidine (5-aza-dC).
After the removal of the medium, the expression amount of the Luc2P gene was determined as a relative value to the expression amount of the Rluc gene. Specifically, through the use of a luminometer LB96P with an enzyme substrate automatic injector (manufactured by Berthold), first, a substrate solution for firefly luciferase measurement (manufactured by Promega) was dispensed at 30 μL/well to measure the expression amount of the Luc2P gene. After that, a substrate solution for Sea pansy luciferase measurement (manufactured by Promega) was further dispensed at 30 μL/well to determine the expression amount of the Rluc gene.

Data set [2] relates to TK6 cells transfected with pGL4-p53R2×3-SV40-Luc2. In words: Mutagenicity test: luciferase reporter, transient pGL4-p53R2×3-SV40-Luc2 transformant. It is filed as cell-based, human. The conditions noted are these: 0.003-0.7 μg/mL. On the procedure: Wild-type p53 of a human lymphoblast cell line TK6 cell was confirmed to be normal by DNA sequencing (ABI Prism BigDye Terminater v3.0; manufactured by Applied Biosystems) using primers for sequencing 5′-ACACGCTTCCCTGGATTG-3′ (SEQ ID NO: 17) and 5′-[…]-3′ (SEQ ID NO: 18).
It should be noted that the amount of pGL4-p53R2×3-SV40-Luc2 for transfection was adjusted to 0.25 ng/well.
Next, after the removal of the medium, a cell lysis solution (manufactured by Promega) was added at 25 μl/well, and the whole was left to stand at room temperature for 15 minutes. The plate was set in a luminometer LB96P with an enzyme substrate automatic injector (manufactured by Berthold), and a substrate solution (manufactured by Promega) was automatically dispensed at 30 μL/well to measure luciferase activities.
Wild-type p53 of a human lymphoblast cell line TK6 was confirmed to be normal in the same manner as described above. […] It should be noted that the amount of pGL4-p53R2×3-SV40-Luc2 for transfection was adjusted to 0.25 ng/well.
(A reporter such as luciferase makes a cellular process visible.)

The subject of data set [3] is TK6 cells transfected with PGV-p53R2×3-Luc. In words: Mutagenicity test: luciferase reporter, transient PGV-p53R2×3-Luc transformant. Format: cell-based, human. The conditions noted are these: TK6, PGV-p53R2×3-Luc. On the procedure:
Next, the same operation as described above was performed to measure luciferase activities except that the plasmid PGV-p53R2×3-Luc prepared in Example 1 of JP 4243716 B2 was used in place of pGL4-p53R2×3-SV40-Luc2.
(§1) Transfection with plasmid PGV-p53R2×3-Luc, culture, and luciferase activity measurement were performed in the same manner as in Reference Example 1 described above except that the transformant was cultured for the following culture time: 16 hours in TK6 cells; 24 hours in MCF-7, HepG2, A549, HCT116, and HEK293; and 18 hours in NB1RGB.

Data set [4] deals with MCF-7 cells transfected with pGL4-p53R2×3-SV40-Luc2. In words: Luciferase reporter, pGL4-p53R2×3-SV40-Luc2 transformant of MCF-7. It is filed as cell-based, human. The conditions noted are these: MCF-7, pGL4-p53R2×3-SV40-Luc2; 8 hours after contact; FIG. 4. The source says:
(§2) The obtained various transformants of the MCF-7 cells, the HepG2 cells, the A549 cells, the HCT116 cells, the HEK293 cells, and the NB1RGB cells were used to measure luciferase activities in the same manner as in the TK6 cells.

In data set [5] the test system is HepG2 cells transfected with pGL4-p53R2×3-SV40-Luc2. In words: Luciferase reporter, pGL4-p53R2×3-SV40-Luc2 transformant of HepG2. Format: cell-based, human. The conditions noted are these: HepG2, pGL4-p53R2×3-SV40-Luc2; 8 hours after contact; FIG. 4.
Description: as §2

The test system of data set [6] is A549 cells transfected with pGL4-p53R2×3-SV40-Luc2. In words: Luciferase reporter, pGL4-p53R2×3-SV40-Luc2 transformant of A549. It is filed as cell-based, human. The conditions noted are these: A549, pGL4-p53R2×3-SV40-Luc2; 8 hours after contact; FIG. 4.
Description: as §2

The test system of data set [7] is HCT116 cells transfected with pGL4-p53R2×3-SV40-Luc2. In words: Luciferase reporter, pGL4-p53R2×3-SV40-Luc2 transformant of HCT116. Format: cell-based, human. The conditions noted are these: HCT116, pGL4-p53R2×3-SV40-Luc2; 8 hours after contact; FIG. 4.
Description: as §2

In data set [8] the test system is HEK293 cells transfected with pGL4-p53R2×3-SV40-Luc2. In words: Luciferase reporter, pGL4-p53R2×3-SV40-Luc2 transformant of HEK293. Format: cell-based, human. The note with it: HEK293, pGL4-p53R2×3-SV40-Luc2; 8 hours after contact; FIG. 4.
Description: as §2

The test system of data set [9] is NB1RGB cells transfected with pGL4-p53R2×3-SV40-Luc2. In words: Luciferase reporter, pGL4-p53R2×3-SV40-Luc2 transformant of NB1RGB. Format: cell-based, human. The conditions noted are these: 8 hours after contact, FIG. 4.
Description: as §2

Data set [10] concerns MCF-7 cells transfected with PGV-p53R2×3-Luc. In words: Luciferase reporter, PGV-p53R2×3-Luc transformant of MCF-7. It is filed as cell-based, human. The conditions noted are these: MCF-7, PGV-p53R2×3-Luc. On the procedure:
(§3) To the obtained various transformants of MCF-7, HepG2, A549, HCT116, HEK293, and NB1RGB, adriamycin dissolved in DMSO was added, followed by culture for 8 hours. After that, luciferase activities were measured in the same manner as in the TK6 cells.
as §1

Data set [11] concerns HepG2 cells transfected with PGV-p53R2×3-Luc. In words: Luciferase reporter, PGV-p53R2×3-Luc transformant of HepG2. Format: cell-based, human. The note with it: HepG2, PGV-p53R2×3-Luc. On the procedure: as §3, §1
In data set [12] the test system is A549 cells transfected with PGV-p53R2×3-Luc. In words: Luciferase reporter, PGV-p53R2×3-Luc transformant of A549. Format: cell-based, human. The note with it: A549, PGV-p53R2×3-Luc. How it is done: as §3, §1
In data set [13] the test system is HCT116 cells transfected with PGV-p53R2×3-Luc. In words: Luciferase reporter, PGV-p53R2×3-Luc transformant of HCT116. The note with it: HCT116, PGV-p53R2×3-Luc. It is filed as cell-based, human. On the procedure:
as §3, §1

Data set [14] has as its system HEK293 cells transfected with PGV-p53R2×3-Luc. In words: Luciferase reporter, PGV-p53R2×3-Luc transformant of HEK293. It is filed as cell-based, human. The note with it: HEK293, PGV-p53R2×3-Luc. On the procedure: as §3, §1
Data set [15] deals with NB1RGB cells transfected with PGV-p53R2×3-Luc. In words: Luciferase reporter, PGV-p53R2×3-Luc transformant of NB1RGB. It is filed as cell-based, human. How it is done: as §3, §1
In data set [16] the test system is stable expression cells TK6/p53R2×3-Luc2P. In words: Mutagenicity test: luciferase reporter, stable expression cells TK6/p53R2×3-Luc2P.

Consider `Nc1ncn([C@H]2C[C@H](O)[C@@H](CO)O2)c(=O)n1` [5-aza-dC, 5-aza-2′-deoxycytidine], for which, in data set [1], the “Firefly luciferase (Luc2P) activity not corrected with Rluc activity (w/o internal control)” value was “an increase in measured value due to an increase in concentration of 5-aza-dC” and the “Luc2P activity corrected with Rluc activity as an internal control (with internal control)” value is given as “no increase in measured value”.
For the molecule `COc1cccc2c1C(=O)c1c(O)c3c(c(O)c1C2=O)C[C@@](O)(C(=O)CO)C[C@@H]3O[C@H]1C[C@H](N)[C@H](O)[C@H](C)O1` [adriamycin], the “Luciferase activity (% of Solvent control)” value was “such an increase in luciferase activity due to an increase in concentration of adriamycin as to be sufficient for performing a mutagenicity test” in data set [2] (contact for 4 hours); “very high luciferase activity” in data set [2] (contact for 8 hours); “an increase in luciferase activity due to an increase in concentration of adriamycin” in data set [2] (dependence on concentration, FIG. 3); “very small luciferase activity; also recorded: only a slight increase in luciferase activity” in data set [3] (0.003-0.7 μg/mL, contact for 8 hours); “high luciferase activity” in data set [3] (culture 16 hours, FIG. 6); “only slight luciferase activity” in [4]. Besides, the “Luciferase activity (% of Solvent control)” value in [5] is given as “only slight luciferase activity”; in data set [6] it was “only slight luciferase activity”; in [7], “only slight luciferase activity”; in data set [8], “only slight luciferase activity”; in data set [9], “only slight luciferase activity”; in data set [10] (contact for 8 hours, FIG. 5) it was “only a slight increase in luciferase activity”. Besides, the “Luciferase activity (% of Solvent control)” value in data set [10] (culture 24 hours, FIG. 6) is listed as “high luciferase activity”; in data set [11] (contact for 8 hours, FIG. 5) it was “only a slight increase in luciferase activity”; in data set [11] (culture 24 hours, FIG. 6), “high luciferase activity”; in [12] (contact for 8 hours, FIG. 5) it was “only a slight increase in luciferase activity”; in [12] (culture 24 hours, FIG. 6), “high luciferase activity”; in data set [13] (contact for 8 hours, FIG. 5), “only a slight increase in luciferase activity”. Further, the “Luciferase activity (% of Solvent control)” value in data set [13] (culture 24 hours, FIG. 6) is “high luciferase activity”; in [14] (contact for 8 hours, FIG. 5), “only a slight increase in luciferase activity”; in data set [14] (culture 24 hours, FIG. 6), “high luciferase activity”; in data set [15] (contact for 8 hours, FIG. 5), “only a slight increase in luciferase activity”; in data set [15] (culture 18 hours, FIG. 6) it was “high luciferase activity”; in data set [16] (0.003-0.7 μg/mL, 6 hours, FIG. 10), “an increase in luciferase activity due to an increase in concentration of adriamycin”. Moreover, the “Luciferase activity compared with the other cells” value was “higher luciferase activities” in [10] (culture 24 hours, FIG. 6) and “higher luciferase activities” in [11] (culture 24 hours, FIG. 6). Moreover, the “Luciferase activity (% of Solvent control), time-dependent change” value in [16] (0.2 μg/mL, 2, 4, 6 and 8 hours, FIG. 9) is “an increase in luciferase activity due to an increase in concentration of adriamycin”.
